Results reported in patent US7897765B2, “Therapeutic compounds and uses thereof” (Elixir Pharmaceuticals, Inc., priority 2003, dated 2011).

Biological target: GHS-R (Homo sapiens, UniProt Q92847)
Assay: cell based assay of GHS-R antagonist/agonist activity
Design: key: A refers to a compound having antagonist activity with Ki<100 nM in a cell based assay; B refers to a compound having agonist activity with EC50<100 nM in a cell based assay; C refers to a compound having antagonist activity of Ki>100 nM and <1500 nM in a cell based assay; D refers to a compound having antagonist activity with Ki, <100 nM and agonist activity with EC50<100 nM in a cell-based assay; E refers to other exemplary compounds
Details: GHS-R antagonist Ki and/or agonist EC50 class
How it was run: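 COS-7 cells transfected with GHS-R, labelled with [3H]-myo-inositol, preincubated in 10 mM LiCl buffer pH 7.4, then given compound 45 min at 37 °C; [3H]-IP isolated by anion exchange. Alternatively, CREB-luciferase reporter in transfected HEK293 with 5 h compound exposure. IC50/EC50 by nonlinear regression.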

Sequence of GHS-R (Q92847 whole entry, species assumed): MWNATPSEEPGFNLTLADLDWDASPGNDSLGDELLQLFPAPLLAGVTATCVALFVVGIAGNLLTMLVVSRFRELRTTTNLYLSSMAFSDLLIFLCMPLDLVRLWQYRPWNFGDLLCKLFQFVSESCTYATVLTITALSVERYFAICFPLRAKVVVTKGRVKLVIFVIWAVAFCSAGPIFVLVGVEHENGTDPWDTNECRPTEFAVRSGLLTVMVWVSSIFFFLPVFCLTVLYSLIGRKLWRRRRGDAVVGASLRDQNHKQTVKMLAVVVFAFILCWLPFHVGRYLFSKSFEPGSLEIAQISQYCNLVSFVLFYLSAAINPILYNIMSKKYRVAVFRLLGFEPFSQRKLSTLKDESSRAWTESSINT

Row | SMILES | Activity
1 | COc1cccc(C(=O)N2CC3(CCN(C(=O)[C@@H](COCc4ccccc4)NC(=O)CN(C)C)CC3)c3ccccc32)c1 [Compound 74] | E
2 | CS(=O)(=O)N1CC2(CCN(C(=O)[C@@H](COCc3ccccc3)NC(=O)NCCO)CC2)c2ccccc21 [Compound 41] | C (C refers to a compound having antagonist activity of Ki>100 nM and <1500 nM in a cell based assay)
3 | CCCN1CCC(C(=O)N[C@H](COCc2ccccc2)C(=O)N2CCC3(CC2)CN(S(C)(=O)=O)c2ccccc23)CC1 [Compound 38] | C (C refers to a compound having antagonist activity of Ki>100 nM and <1500 nM in a cell based assay)
4 | CS(=O)(=O)N1CC2(CCN(C(=O)[C@@H](COCc3ccccc3)NS(=O)(=O)CCCN3CCCC3)CC2)c2ccccc21 [Compound 159] | A (A refers to a compound having antagonist activity with Ki<100 nM in a cell based assay)
5 | CN1CCC=C(C(=O)N[C@H](COCc2ccccc2)C(=O)N2CCC3(CC2)CN(S(C)(=O)=O)c2ccccc23)C1 [Compound 7] | D (D refers to a compound having antagonist activity with Ki, <100 nM and agonist activity with EC50<100 nM in a cell-based assay)
6 | CN1CCC(S(=O)(=O)N[C@H](COCc2ccccc2)C(=O)N2CCC3(C=Cc4ccccc43)CC2)CC1 [Compound 154] | C (C refers to a compound having antagonist activity of Ki>100 nM and <1500 nM in a cell based assay)
7 | CC(C)NCCCS(=O)(=O)N[C@H](COCc1ccccc1)C(=O)N1CCC2(CC1)CN(S(C)(=O)=O)c1ccccc12 [Compound 148] | A (A refers to a compound having antagonist activity with Ki<100 nM in a cell based assay)
8 | CN[C@H](C)C(=O)N[C@H](COCc1ccccc1)C(=O)N1CCC2(CC1)CN(S(C)(=O)=O)c1ccccc12 [Compound 130] | B (B refers to a compound having agonist activity with EC50<100 nM in a cell based assay)
9 | CCN1CCC(C(=O)N[C@H](COCc2ccccc2)C(=O)N2CCC3(CC2)CN(S(C)(=O)=O)c2ccccc23)CC1 [Compound 27] | C (C refers to a compound having antagonist activity of Ki>100 nM and <1500 nM in a cell based assay)
10 | CN1CCC(S(=O)(=O)N[C@H](COCc2ccccc2)C(=O)N2CCC3(CC2)CN(S(C)(=O)=O)c2ccccc23)CC1 [Compound 143] | A (A refers to a compound having antagonist activity with Ki<100 nM in a cell based assay)
11 | CS(=O)(=O)N1CC2(CCN(C(=O)[C@@H](COCc3ccccc3)NC(=O)C3CNC3)CC2)c2ccccc21 [Compound 36] | C (C refers to a compound having antagonist activity of Ki>100 nM and <1500 nM in a cell based assay)
12 | CCN1CCC=C(C(=O)N[C@H](COCc2ccccc2)C(=O)N2CCC3(CC2)CN(S(C)(=O)=O)c2ccccc23)C1.Cl [Compound 2] | D (D refers to a compound having antagonist activity with Ki, <100 nM and agonist activity with EC50<100 nM in a cell-based assay)
13 | CN(C)CC(=O)NC(C)(C)C(=O)N[C@H](COCc1ccccc1)C(=O)N1CCC2(CC1)CN(S(C)(=O)=O)c1ccccc12 [Compound 127] | B (B refers to a compound having agonist activity with EC50<100 nM in a cell based assay)
14 | C[C@H](C(=O)N[C@H](COCc1ccccc1)C(=O)N1CCC2(CC1)CN(S(C)(=O)=O)c1ccccc12)N(C)C [Compound 14] | A (A refers to a compound having antagonist activity with Ki<100 nM in a cell based assay)
15 | COC(=O)CC(=O)N1CC2(CCN(C(=O)[C@@H](COCc3ccccc3)NC(=O)CN(C)C)CC2)c2ccccc21 [Compound 72] | E
16 | C[C@@H](N)C(=O)N[C@H](COCc1ccccc1)C(=O)N1CCC2(CC1)CN(S(C)(=O)=O)c1ccccc12 [Compound 79] | E

Row | SMILES | Activity
17 | CC(C)(C)OC(=O)N[C@H](COCc1ccccc1)C(=O)N1CCC2(CC1)CN(C(=O)Cn1ccnc1)c1ccccc12 [Compound 66] | E
18 | CN1CCN(CC(=O)N[C@H](COCc2ccccc2)C(=O)N2CCC3(CC2)CN(S(C)(=O)=O)c2ccccc23)CC1 [Compound 91] | E
19 | CS(=O)(=O)N1CC2(CCN(C(=O)[C@@H](COCc3ccccc3)NC(=O)CO)CC2)c2ccccc21 [Compound 54] | E
20 | CC(=O)NC(C)(C)C(=O)N[C@H](COCc1ccccc1)C(=O)N1CCC2(CC1)CN(S(C)(=O)=O)c1ccccc12 [Compound 126] | B (B refers to a compound having agonist activity with EC50<100 nM in a cell based assay)
21 | CC(C)(C)OC(=O)N[C@H](COCc1ccccc1)C(=O)N1CCC2(CC1)CN(C(=O)CO)c1ccccc12 [Compound 61] | E
22 | CS(=O)(=O)N1CC2(CCN(C(=O)[C@@H](COCc3ccccc3)NS(=O)(=O)CCN3CCCC3)CC2)c2ccccc21.Cl [Compound 28] | C (C refers to a compound having antagonist activity of Ki>100 nM and <1500 nM in a cell based assay)
23 | CN(C)CC(=O)N[C@H](COCc1ccccc1)C(=O)N1CCC2(CC1)CN(C(=O)CO)c1ccccc12 [Compound 75] | E
24 | CC(C)(C)NC(=O)N[C@H](COCc1ccccc1)C(=O)N1CCC2(CC1)CN(S(C)(=O)=O)c1ccccc12 [Compound 17] | C (C refers to a compound having antagonist activity of Ki>100 nM and <1500 nM in a cell based assay)
25 | CC(=O)OCC(=O)N1CC2(CCN(C(=O)[C@@H](COCc3ccccc3)NC(=O)OC(C)(C)C)CC2)c2ccccc21 [Compound 59] | E
26 | CS(=O)(=O)N1CC2(CCN(C(=O)[C@@H](COCc3ccccc3)NS(=O)(=O)CCCCl)CC2)c2ccccc21 [Compound 153] | A (A refers to a compound having antagonist activity with Ki<100 nM in a cell based assay)
27 | CC(C)(C)OC(=O)N[C@H](COCc1ccccc1)C(=O)N1CCC2(CC1)CNc1ccccc12 [Compound 56] | E
28 | CS(=O)(=O)N1CC2(CCN(C(=O)[C@@H](COCc3ccccc3)NC(=O)c3ccccn3)CC2)c2ccccc21 [Compound 53] | E
29 | COc1cccc(NC(=O)N2CC3(CCN(C(=O)[C@@H](COCc4ccccc4)NC(=O)CN(C)C)CC3)c3ccccc32)c1 [Compound 69] | E
30 | CCN(CC)CCCS(=O)(=O)N[C@H](COCc1ccccc1)C(=O)N1CCC2(C=Cc3ccccc32)CC1 [Compound 164] | A (A refers to a compound having antagonist activity with Ki<100 nM in a cell based assay)
31 | CC(C)(C)OC(=O)N[C@H](COCc1ccccc1)C(=O)N1CCC2(CC1)CN(S(=O)(=O)CC(F)(F)F)c1ccccc12 [Compound 64] | E

Next, values leading:

Row | Activity | SMILES
32 | E | CC(C)(C)OC(=O)N1CCC=C(C(=O)N[C@H](COCc2ccccc2)C(=O)N2CCC3(CC2)CN(S(C)(=O)=O)c2ccccc23)C1 [Compound 106]
33 | E | CC(=O)N(CC1CCN(C(=O)OC(C)(C)C)CC1)[C@H](COCc1ccccc1)C(=O)N1CCC2(CC1)CN(S(C)(=O)=O)c1ccccc12 [Compound 108]
34 | E | CCN(CC)CCC(=O)N[C@H](COCc1ccccc1)C(=O)N1CCC2(CC1)CN(S(C)(=O)=O)c1ccccc12 [Compound 111]
35 | E | CS(=O)(=O)N1CC2(CCN(C(=O)[C@@H](COCc3ccccc3)NC(=O)C3=CCCNC3)CC2)c2ccccc21 [Compound 107]
36 | E | CS(=O)(=O)N1CC2(CCN(C(=O)[C@@H](COCc3ccccc3)NC(=O)NCCN3CCOCC3)CC2)c2ccccc21 [Compound 92]
37 | E | CS(=O)(=O)N1CC2(CCN(C(=O)[C@@H](COCc3ccccc3)NC(=O)C3(N)CCCCC3)CC2)c2ccccc21 [Compound 117]
38 | E | CN(C)CCNC(=O)N[C@H](COCc1ccccc1)C(=O)N1CCC2(CC1)CN(S(C)(=O)=O)c1ccccc12 [Compound 94]
39 | E | CN(C)CC(=O)N[C@@H](Cc1ccccc1)C(=O)N1CCC2(CC1)CN(S(C)(=O)=O)c1ccccc12 [Compound 124]
40 | E | CN1CCC(C(=O)N[C@H](CCc2ccccc2)C(=O)N2CCC3(CC2)CN(S(C)(=O)=O)c2ccccc23)CC1 [Compound 136]
41 | E | CS(=O)(=O)N1CC2(CCN(C(=O)[C@@H](COCc3ccccc3)NS(=O)(=O)CCN3CCOCC3)CC2)c2ccccc21 [Compound 144]
42 | E | CN(C)C1(C(=O)N[C@H](COCc2ccccc2)C(=O)N2CCC3(CC2)CN(S(C)(=O)=O)c2ccccc23)CCCC1 [Compound 119]
43 | E | CS(=O)(=O)N1CC2(CCN(C(=O)[C@@H](COCc3ccccc3)NS(=O)(=O)CCCNC3CC3)CC2)c2ccccc21 [Compound 157]
44 | E | CC1=NCCC(C(=O)N[C@H](COCc2ccccc2)C(=O)N2CCC3(CC2)CN(S(C)(=O)=O)c2ccccc23)N1 (stereo partly drawn) [Compound 112]
45 | E | CS(=O)(=O)N1CC2(CCN(C(=O)[C@@H](COCc3ccccc3)NC(=O)c3cccc(CN)c3)CC2)c2ccccc21 [Compound 122]
46 | E | CS(=O)(=O)N1CC2(CCN(C(=O)[C@@H](COCc3ccccc3)NC(=O)c3ccc(CN)cc3)CC2)c2ccccc21 [Compound 121]
47 | E | CN1CCC(NC(=O)N2C[C@H](OCc3ccccc3)CC2C(=O)N2CCC3(CC2)CN(S(C)(=O)=O)c2ccccc23)CC1 (stereo partly drawn) [Compound 139]
48 | E | CS(=O)(=O)N1CC2(CCN(C(=O)[C@@H](COCc3ccccc3)NC(=O)[C@@H]3CCC[C@H](CN)C3)CC2)c2ccccc21 [Compound 114]
49 | E | CC(C)(C)OC(=O)N1CCC(CNC(COCc2ccccc2)C(=O)N2CCC3(CC2)CN(S(C)(=O)=O)c2ccccc23)CC1 (stereo not drawn) [Compound 103]
50 | E | C=CS(=O)(=O)N[C@H](COCc1ccccc1)C(=O)N1CCC2(CC1)CN(S(C)(=O)=O)c1ccccc12 [Compound 147]
51 | E | CC(C)(C)OC(=O)N1CC=C(C(=O)N[C@H](COCc2ccccc2)C(=O)N2CCC3(CC2)CN(S(C)(=O)=O)c2ccccc23)CC1 [Compound 98]
